Tested on: Kornkäfer (sitophilus granarius L)
Assay: whole plant or invertebrate
Type: in vivo
Conditions: for mortality at 1000 µg/mL / mortality at 100 µg/mL: Sitophilus granarius; for mortality at 1000 µg/mL / Wirksamkeit in % Substanz allein: amine 1 mg/ml in Aceton mixed 1 : 1 with Aceton, 2 ml per dish, 25 weevils, dead counted after 3 h; for mortality at 1000 µg/mL: read-out: Wirksamkeit in % Substanz allein; for Wirksamkeit in % Substanz +Ripcord: amine 1 mg/ml mixed 1 : 1 with Ripcord 0,01 mg/ml; for Wirksamkeit in % Substanz +Ripcord / Wirksamkeit in % Substanz +Talcord / mortality at 100 µg/mL: 3 h; for Wirksamkeit in % Substanz +Talcord: amine 1 mg/ml mixed 1 : 1 with Talcord 0,01 mg/ml; for % Wirkung Substanz +Ripcord / % Wirkung Substanz +Talcord: Pyrethroid : Amin 1 : 10, amine 0,1 mg/ml; for mortality at 100 µg/mL: read-out: % Wirkung Substanz allein
Procedure: Test von tertiären, heterocyclischen Aminen allein und im Gemisch mit Pyrethroiden an Kornkäfern (sitophilus granarius L)
In Petrischalen mit 15 cm Durchmesser mit talcumbepuderten Seitenwänden, um das Entfliehen der Kornkäfer zu verhindern, wurden jeweils 2 ml der Acetonlösungen einpipettiert und durch vorsichtiges Schwenken der Schalen gleichmäßig auf dem Boden verteilt. Nach dem Abdampfen des Acetons und dem Antrocknen der Beläge wurden in jede Schale 25 Kornkäfer eingezählt. Nach einer Stunde wurde jeweils ein 12,5 cm Rundfilter in die Schalen eingelegt, um den Käfern das Befreien aus der Rückenlage zu ermöglichen, was auf der glatten Glasplatte nicht möglich ist. Die lichtscheuen Käfer verkrochen sich mit Vorliebe unter die Filter und blieben so ständig mit den Wirkstoffbelägen in Kontakt. Alle Versuche liefen mit 3 Wiederholungen. Nach 3 h wurden die toten Käfer ausgezählt.
In der Tabelle 3 ist jeweils der Durchschnitt der Summe der 4 Einzelwerte angegeben. 25 tote Kornkäfer entsprechen dabei einer Wirkung von 100 %. Die Temperaturen betrugen während der Tests im Durchschnitt 19 - 21°C. Der synergistische Faktor berechnet sich analog wie in Beispiel 1 angegeben.
Die zu prüfenden tertiären, heterocyclischen Amine wurden - mit 1 mg Wirkstoff pro ml als Acetonlösungen angesetzt. Sie wurden im Verhältnis 1 : 1 mit Ripcord bzw. Talcord, die mit 0,01 mg Wirkstoff pro ml als Acetonlösung vorlagen, gemischt. Die Einzelkomponenten wurden im Verhältnis 1 : 1 mit Aceton gemischt.
Auch bei diesen Versuchen zeigten die Kontrollversuche stets bei Versuchsende eine Mortalität der Kornkäfer von 0 %.
Die synergistische Wirkung der tertiären, heterocyclischen Amine auf die Pyrethroide ist auch dann noch deutlich, wenn das Amin in wesentlich niederen Aufwandmengen eingesetzt wird, als dies in Beispiel 3 beschrieben wurde. Die Ergebnisse sind in der Tabelle 4 zusammengestellt. Dieser Versuch zeigt auch, daß Amine mit insektiziden Eigenschaften, wenn sie in Konzentrationen unterhalb ihres insektiziden Wirkungsbereiches eingesetzt werden, immer noch gute synergistische Wirkungen im Gemisch mit Pyrethroiden zeigen. Die Versuche wurden wie im Beispiel 3 beschrieben mit Kornkäfern durchgeführt. Es wurden lediglich die Konzentrationen der eingesetzten tertiären, heterocyclischen Amine geändert. Für die Verdünnung Pyrethroid : Amin = 1 : 10 wurde das Amin mit 0,1 mg Wirkstoff/ml Acetonlösung eingesetzt. Für die Verdünnung 1 : 5 mit 0,05 mg Wirkstoff/ml.

[1] = amine 1 mg/ml + Ripcord 0,01 mg/ml
[2] = amine 1 mg/ml + Talcord 0,01 mg/ml
[3] = amine 0,1 mg/ml (as for Pyrethroid : Amin 1 : 10)

CCCCCCCCCCCCN1CCCCCC1 [N-1-Dodecyl-hexamethylenimin]
mortality at 1000 µg/mL: 14%
Synergistischer Faktor bei Ripcord [1]: 1,59
Synergistischer Faktor bei Talcord [2]: 1,03
Wirksamkeit in % Substanz +Ripcord: 64,0%
Wirksamkeit in % Substanz +Talcord: 24,0%

CCCCCCCCCCCCN1CCOCC1 [N-1-Dodecyl-morpholin]
mortality at 1000 µg/mL: 0%
Synergistischer Faktor bei Ripcord [1]: 2,76
Synergistischer Faktor bei Talcord [2]: 1,53
Wirksamkeit in % Substanz +Ripcord: 86,8%
Wirksamkeit in % Substanz +Talcord: 14,8%

CCCCCCCCCCCCN1CCCCC1 [N-1-Dodecyl-piperidin]
mortality at 1000 µg/mL: 24%
Synergistischer Faktor bei Ripcord [1]: 2,24
Wirksamkeit in % Substanz +Ripcord: 94,6%

CCCCCCCCCCCCN1CCCC1 [N-1-Dodecyl-pyrrolidin]
mortality at 1000 µg/mL: 89.3%
Wirksamkeit in % Substanz +Ripcord: 92,0%
Wirksamkeit in % Substanz +Talcord: 96,0%

CCOCCN1CCCCC1 [N-1-Ethoxi-ethyl-(2)-piperidin]
Synergistischer Faktor bei Ripcord [1]: 1,78
Wirksamkeit in % Substanz allein: 0%
Wirksamkeit in % Substanz +Ripcord: 56,0%
Wirksamkeit in % Substanz +Talcord: 0%

CCCCCCCCCCCCCCCCN1CCCCC1CC (centres unmarked) [N-1-Hexadecyl-2-ethyl-piperidin]
mortality at 1000 µg/mL: 0%
Synergistischer Faktor bei Ripcord [1]: 2,37
Synergistischer Faktor bei Talcord [2]: 1,94
Wirksamkeit in % Substanz +Ripcord: 74,8%
Wirksamkeit in % Substanz +Talcord: 18,8%

CCCCCCCCCN1CCCCCC1 [N-1-Nonyl-hexamethylenimin]
mortality at 1000 µg/mL: 40%
Synergistischer Faktor bei Ripcord [1]: 1,82
Synergistischer Faktor bei Talcord [2]: 4,54
Wirksamkeit in % Substanz +Ripcord: 97,2%
Wirksamkeit in % Substanz +Talcord: 84,0%

CCCCCCCCN1CCCCC1CC (centres unmarked) [N-1-Octyl-2-ethyl-piperidin]
mortality at 1000 µg/mL: 26.8%
Synergistischer Faktor bei Ripcord [1]: 1,52
Synergistischer Faktor bei Talcord [2]: 2,60
Wirksamkeit in % Substanz +Ripcord: 74,8%
Wirksamkeit in % Substanz +Talcord: 52,0%

CCCCCCCCN1CCCCC1 [N-1-Octyl-piperidin]
mortality at 1000 µg/mL: 0%
Synergistischer Faktor bei Ripcord [1]: 1,74
Synergistischer Faktor bei Talcord [2]: 1,24
Wirksamkeit in % Substanz +Ripcord: 54,8%
Wirksamkeit in % Substanz +Talcord: 12,0%

CCCCCCCCN1CCCC1 [N-1-Octyl-pyrrolidin]
mortality at 1000 µg/mL: 0%
Synergistischer Faktor bei Ripcord [1]: 1,78
Synergistischer Faktor bei Talcord [2]: 4,12
Wirksamkeit in % Substanz +Ripcord: 56,0%
Wirksamkeit in % Substanz +Talcord: 40,0%

CCCCCN1CCOCC1 [N-1-Pentyl-morpholin]
mortality at 1000 µg/mL: 0%
Synergistischer Faktor bei Ripcord [1]: 2,79
Synergistischer Faktor bei Talcord [2]: 3,83
Wirksamkeit in % Substanz +Ripcord: 88,0%
Wirksamkeit in % Substanz +Talcord: 37,2%

CCCCCN1CCCCC1 [N-1-Pentyl-piperidin]
mortality at 1000 µg/mL: 0%
Synergistischer Faktor bei Ripcord [1]: 1,94
Synergistischer Faktor bei Talcord [2]: 2,06
Wirksamkeit in % Substanz +Ripcord: 61,2%
Wirksamkeit in % Substanz +Talcord: 20,0%

CCCCCN1CCCC1 [N-1-Pentyl-pyrrolidin]
mortality at 1000 µg/mL: 0%
Synergistischer Faktor bei Ripcord [1]: 2,37
Synergistischer Faktor bei Talcord [2]: 10,3
Wirksamkeit in % Substanz +Ripcord: 74,8%
Wirksamkeit in % Substanz +Talcord: 100,0%

c1ccc(CCN2CCOCC2)cc1 [N-1-Phenyl-ethyl-(2)-morpho-lin]
Synergistischer Faktor bei Ripcord [1]: 2,76
Synergistischer Faktor bei Talcord [2]: 7,55
Wirksamkeit in % Substanz allein: 0%
Wirksamkeit in % Substanz +Ripcord: 86,8%
Wirksamkeit in % Substanz +Talcord: 73,2%

CC(C)=CCCC(C)=CCN1CCCCC1 [N-1-Piperidino-3,7-dimethyl-octadien-(2,6)]
Synergistischer Faktor bei Ripcord [1]: 2,79
Synergistischer Faktor bei Talcord [2]: 8,37
Wirksamkeit in % Substanz allein: 0%
Wirksamkeit in % Substanz +Ripcord: 88,0%
Wirksamkeit in % Substanz +Talcord: 81,2%

C#CCN1CCCCC1CC (centres unmarked) [N-1-Propanrgyl-2-ethyl-piperidin]
Synergistischer Faktor bei Ripcord [1]: 2,92
Synergistischer Faktor bei Talcord [2]: 3,84
Wirksamkeit in % Substanz allein: 0%
Wirksamkeit in % Substanz +Ripcord: 92,0%
Wirksamkeit in % Substanz +Talcord: 37,2%

CCCCCCCCCCCCCCN1CCCC1 [N-1-Tetradecyl-pyrrolidin]
mortality at 1000 µg/mL: 0%
Synergistischer Faktor bei Ripcord [1]: 1,59
Wirksamkeit in % Substanz +Ripcord: 50,0%
Wirksamkeit in % Substanz +Talcord: 6,0%

CCCCCCCCCCCCCN1CCCC1 [N-1-Tridecyl-pyrrolidin]
mortality at 1000 µg/mL: 22.8%
Synergistischer Faktor bei Ripcord [1]: 1,78
Synergistischer Faktor bei Talcord [2]: 2,19
Wirksamkeit in % Substanz +Ripcord: 78,8%
Wirksamkeit in % Substanz +Talcord: 44,0%

CCCCCCCCCCCN1CCCCCC1 [N-1-Undecyl-hexamethylenimin]
% Wirkung Substanz +Ripcord (180 min): 92,0%
% Wirkung Substanz +Talcord (180 min): 73,2%
mortality at 100 µg/mL [3]: 0%
mortality at 1000 µg/mL: 0%
Wirksamkeit in % Substanz +Ripcord: 73,1%
Wirksamkeit in % Substanz +Talcord: 81,2%

CCCCCCCCCCCN1CCCC1 [N-1-Undecyl-pyrrolidin]
Synergistischer Faktor bei Ripcord (Pyrethroid : Amin 1 : 10): 3,09
Synergistischer Faktor bei Talcord (Pyrethroid : Amin 1 : 10): 7,42
% Wirkung Substanz +Ripcord (180 min): 97,2%
% Wirkung Substanz +Talcord (180 min): 72,0%
mortality at 100 µg/mL [3]: 0%

c1ccc(OCCN2CCCCCC2)cc1 [N-2-Phenoxi-ethyl-(1)-hexa-methylenimin]
Synergistischer Faktor bei Ripcord [1]: 2,70
Synergistischer Faktor bei Talcord [2]: 5,09
Wirksamkeit in % Substanz allein: 0%
Wirksamkeit in % Substanz +Ripcord: 85,2%
Wirksamkeit in % Substanz +Talcord: 49,4%

c1ccc(OCCN2CCCCC2)cc1 [N-2-Phenoxi-ethyl-(1)-piperidin]
Synergistischer Faktor bei Ripcord [1]: 2,54
Synergistischer Faktor bei Talcord [2]: 6,60
Wirksamkeit in % Substanz allein: 4,0%
Wirksamkeit in % Substanz +Ripcord: 84,0%
Wirksamkeit in % Substanz +Talcord: 68,0%

CCCCCCCCCC(C)N1CCCC1 (centres unmarked) [N-2-Undecyl-pyrrolidin]
mortality at 1000 µg/mL: 56%
Synergistischer Faktor bei Ripcord [1]: 1,36
Wirksamkeit in % Substanz +Ripcord: 98,8%
Wirksamkeit in % Substanz +Talcord: 64,0%

c1ccc(OCCCN2CCCCCC2)cc1 [N-3-Phenoxi-propyl-(1)-hexamethylenimin]
Synergistischer Faktor bei Ripcord [1]: 2,03
Synergistischer Faktor bei Talcord [2]: 3,42
Wirksamkeit in % Substanz allein: 0%
Wirksamkeit in % Substanz +Ripcord: 64,0%
Wirksamkeit in % Substanz +Talcord: 33,2%

Clc1ccc(CN2CCCCC2)cc1 [N-4-Chlor-benzyl-piperidin]
Synergistischer Faktor bei Ripcord [1]: 2,37
Synergistischer Faktor bei Talcord [2]: 4,82
Wirksamkeit in % Substanz allein: 0%
Wirksamkeit in % Substanz +Ripcord: 74,8%
Wirksamkeit in % Substanz +Talcord: 46,8%

Clc1ccc(CN2CCCC2)cc1 [N-4-Chlor-benzyl-pyrrolidin]
Synergistischer Faktor bei Ripcord (Pyrethroid : Amin 1 : 10): 3,09
Synergistischer Faktor bei Talcord (Pyrethroid : Amin 1 : 10): 7,55
% Wirkung Substanz +Ripcord (180 min): 97,2%
% Wirkung Substanz +Talcord (180 min): 73,2%
% Wirkung Substanz allein (amine 0,1 mg/ml (as for Pyrethroid : Amin 1 : 10), 180 min): 0%
Synergistischer Faktor bei Ripcord [1]: 3,17
Synergistischer Faktor bei Talcord [2]: 2,35
Wirksamkeit in % Substanz allein: 0%
Wirksamkeit in % Substanz +Ripcord: 100,0%
Wirksamkeit in % Substanz +Talcord: 22,8%

O=[N+]([O-])c1ccc(CN2CCCCC2)cc1 [N-4-Nitro-benzyl-piperidin]
mortality at 1000 µg/mL: 2.8%
Synergistischer Faktor bei Ripcord [1]: 1,47
Synergistischer Faktor bei Talcord [2]: 1,77
Wirksamkeit in % Substanz +Ripcord: 49,2%
Wirksamkeit in % Substanz +Talcord: 20,0%

— EP0029617A1, “Use of tertiary heterocyclic amines as synergists in pesticides; derivatives of cycloamines” (priority 1979, dated 1981)
